Patent US11690814B2, “Suplatast tosilate for use in the treatment of cough associated with interstitial lung disease” (Conrig Pharma ApS, priority 2016, dated 2023)
“Also recorded” adds a separate entry of the source. Like-named read-outs stand apart in the source and are kept apart here.

Tests used:
[1] = test system: bleomycin-treated guinea pigs (capsaicin inhalation-induced cough); test: 30 uM capsaicin cough challenge on bleomycin-treated animals (pre-clinical model of pulmonary fibrosis); assay type: in vivo, guinea pig; details: for inhibition at 30 mg/kg: Cavia porcellus, ip; for mean cough, 10 min exposure: bleomycin-treated (14 days after 8 U/kg intratracheal), 30 mg/kg i.p. 30 min before 30 uM capsaicin, vehicle 52.9; for mean cough, 10 min exposure / mean cough, 5 min observation / mean cough, 10 + 5 min: n=14-16; for antitussive effect (conclusion in words): bleomycin-treated animals, capsaicin challenge; for mean cough, 5 min observation: 5 min post-exposure period, vehicle 22.4; for mean cough, 10 + 5 min: vehicle 75.3
Protocol: (§1) The study was conducted as described in example 2, with the following exceptions. The bleomycin-induced cough modes is described J. A. Fernandez-Blanco et al: Clinical Science (2015) 129, 1001-1010).
(§2) The objective of the present study was to evaluate the potential anti-tussive effect of suplatast tosilate on capsaicin inhalation-induced cough on naïve and bleomycin-treated guinea pigs.
(§3) Male guinea pigs 300-350 g bodyweight (Harlan MD, distributed by INNOVO Ltd., Hungary) were used. The animals were housed in individually ventilated cabinets in a temperature-controlled and ventilated environment (21-23° C.) with a 12-hour light-dark cycle. Water and standard ascorbic acid containing guinea pig chow were provided ad libitum. The protocol has been approved by the Hungarian Food Chain Safety and Animal Health Directorate (PEI/001/3083-6/2014) and was carried out in accordance with European Directive 86/609/EEC.
(§4) Suplatast tosilate (racemate) and reference compound codeine were dissolved in saline ([…]) at 15 mg/mL concentration. Suplatast tosilate was administered intraperitoneally at 30 mg/kg dose (2 ml/kg b.d.w. volume from the […] solution) 30 min before capsaicin challenge. Codeine is a known cough suppressant.
(§5) Three experimental groups were involved in this study: Vehicle, suplatast tosilate and codeine treated groups. Each group contained n=16 guinea pigs. Altogether, 48 guinea pigs were used for this study.
(§6) On day 0 the naïve animals were treated i.p. either with codeine or suplatast tosilate. 30 min later the cough challenge was applied. 14 days later the animals were anaesthetized by ketamin/xilazine/acepromazine 10/2/0.1 mg/kg at 1 mL/kg i.m. The trachea was prepared and 8 U/kg bodyweight (1 mL/kg volume in sterile saline) bleomycin was injected slowly into the trachea. The wound was closed by sutures. 14 days after bleomycin injection the animals were treated with the test molecules and exposed to capsaicin spray again.
(§7) The capsaicin cough-challenge protocol was applied both on day 0 naïve animals and on day 28 on bleomycin treated animals. The guinea pigs were exposed to 30 μM capsaicin spray 30 min after the test item administration. The 30 μM capsaicin spray was generated by a compressed air nebulizer (DeVilbiss Pulmoaid) connected to a transparent chamber (6.7 l volume). Compressed air with a flow of 0.16 l/s and pressure of 0.5 bar produced the spray. The capsaicin vapour penetrated into the chamber through a short tube driven by constant air flow. The animals were put into a transparent chamber individually and exposed to the capsaicin (30 μM capsaicin was diluted by water from 10^-2 M alcoholic capsaicin stock solution) aerosol for 10 minutes. The number of coughs during the 10 min inhalation period and the subsequent 5 min was counted. The coughing of the animals was defined as a strong contraction of abdomen which was followed by forced expiration through the opened mouth of the animals. Two trained technicians monitored in parallel the exposed animals and counted the cough numbers independently from each-others.
(§8) The cough numbers in each group were expressed as median and inter quartile range on the figures and mean±SD on tables. The percentage antitussive effect was also calculated.

[2] = test system: naive guinea pigs (capsaicin inhalation-induced cough); test: 30 uM capsaicin cough challenge on naive animals; assay type: in vivo, guinea pig; details: for inhibition at 30 mg/kg: Cavia porcellus, ip; for mean cough, 10 min exposure: 30 mg/kg i.p. 30 min before 30 uM capsaicin, vehicle 9.3; for mean cough, 10 min exposure / mean cough, 5 min observation / mean cough, 10 + 5 min: n=16; for mean cough, 5 min observation: 5 min post-exposure period, vehicle 2.4; for mean cough, 10 + 5 min: vehicle 11.7; for antitussive effect (conclusion in words): capsaicin challenge
Protocol: as §1, §2, §3, §4, §5, §6, §7, §8

[3] = test system: patients receiving the drug; details: cited from earlier work
[4] = test system: Idiopathic Pulmonary Fibrosis (IPF); details: cited from earlier work
[5] = test system: guinea pigs (enalapril plus citric acid induced cough); test: Cough induced by enalapril plus citric acid in guinea pigs; assay type: in vivo, guinea pig; details: 30 mg/kg i.p. 30 min before 10% citric acid spray; enalapril 1.3 mg/kg s.c.; whole 8-min observation; mean±S.E.M.; n=6; vehicle 11.2±2.6
Protocol: as §3, with “The method is described in detail by Zhou et al: Pharmacology. 2015; 95(1-2): 36-41. In brief: Male” for “Male”, “open cages” for “individually ventilated cabinets”
The enalapril maleate was dissolved in sterile saline (Salsol infusion, Teva) at 1.3 mg/mL concentration and was applied subcutaneously at 1.3 mg/kg dose (1 mL/kg b.d.w. volume from the 1.3 mg/mL solution) 30 min before vehicle, suplatast tosilate or administration. […]
The guinea pigs were exposed to 10% citric acid spray 30 min after the test item administration. […] The number of coughs during the 3 min inhalation period and the subsequent 5 min was counted. […] The sound of the cough was monitored by a microphone connected to a loudspeaker placed into the cough chamber. A trained technician monitored the exposed animals and counted the cough numbers.
The average cough numbers in each group was expressed as mean±S.E.M. The percentage antitussive effect was also calculated.

[6] = test system: patients with Cough Variant Asthma; details: cited from earlier work
[7] = test system: patients with non-atopic asthma or chronic bronchitis; details: cited from earlier work
[8] = Solubility in dosing vehicle; assay type: physicochemical; details: 10% PEG400/saline mixture; 30 mg/mL dosing solution
Protocol: The vehicle for suplatast tosilate was 10% PEG400/saline mixture. Suplatast tosilate was well soluble in this mixture. ST was administered intraperitoneally at 30 mg/kg dose (1 ml/kg b.d.w. volume from the 30 mg/mL solution/suspension) 30 min before citric acid challenge. 6 guinea pigs were included in the vehicle group and in the ST group.
The vehicle for suplatast tosilate (ST) is 10% PEG400/saline mixture. ST is well soluble in this mixture. ST is administered intraperitoneally at 30 mg/kg dose (1 ml/kg b.d.w. volume from the 30 mg/mL solution/suspension) 30 min before citric acid challenge. 6 guinea pigs were included in the vehicle and in the ST groups.

Atopic cough = details: after four weeks of treatment; cited from earlier work
[9] = test system: guinea pigs (enalapril plus citric acid induced cough); details: Zhou et al 2015; cited from earlier work
[10] = test system: guinea-pigs (airway cough hypersensitivity, allergic eosinophilic inflammation); details: cited from earlier work
[11] = test system: refractory chronic dry cough following lung cancer surgery; details: cited from earlier work
[12] = 5 min, read-out: Percentage inhibition (antitussive effect), 5 min observation
[13] = 10 min, read-out: Percentage inhibition (antitussive effect), 10 min exposure
[14] = read-out: Percentage inhibition (antitussive effect), 10 + 5 min
[15] = bleomycin-treated, 30 mg/kg i.p.
[16] = bleomycin-treated, 30 mg/kg i.p., whole 15-min observation
[17] = naive animals, 30 mg/kg i.p., whole 15-min observation

Compound: COc1ccc2c3c1O[C@H]1[C@@H](O)C=C[C@H]4[C@@H](C2)N(C)CC[C@@]341 [Codeine, codeine]
- inhibition at 30 mg/kg [1, 12]: 76.2%
- inhibition at 30 mg/kg [1, 13]: 72.9%
- inhibition at 30 mg/kg [1, 14]: 73.9%
- mean cough, 10 min exposure [1]: 14.3
- antitussive effect (conclusion in words) ([1]; 30 mg/kg i.p.): showed antitussive effect
- mean cough, 5 min observation [1, 15]: 5.3
- mean cough, 10 + 5 min [1, 16]: 19.7
- inhibition at 30 mg/kg [2, 12]: 97.4%
- inhibition at 30 mg/kg [2, 13]: 43.9%
- inhibition at 30 mg/kg [2, 14]: 55%
- mean cough, 10 min exposure ([2]; naive animals): 5.2
- mean cough, 5 min observation ([2]; naive animals, 30 mg/kg i.p.): 0.1
- mean cough, 10 + 5 min [2, 17]: 5.3
- antitussive effect (conclusion in words) ([2]; naive animals, 30 mg/kg i.p.): showed antitussive effect

Compound: O=C1CN(/N=C/c2ccc([N+](=O)[O-])o2)C(=O)N1 [nitrofurantoin]
- patients who get pulmonary fibrosis [3]: 0.01%

Compound: COC(=O)c1ccc2c(c1)NC(=O)/C2=C(\Nc1ccc(N(C)C(=O)CN2CCN(C)CC2)cc1)c1ccccc1 [Ofev (nintedanib), nintedanib]
- effect on decline of lung function [4]: slow the decline of lung function
- effect on mortality and lung function [4]: has not been shown to reduce mortality or improve lung function

Compound: CCCCc1oc2ccccc2c1C(=O)c1cc(I)c(OCCN(CC)CC)c(I)c1 [amiodarone]
- patients who get pulmonary fibrosis [3]: up to 40%

Compound: CCOCC(O)COc1ccc(NC(=O)CC[S+](C)C)cc1.Cc1ccc(S(=O)(=O)[O-])cc1 (racemic) [Suplatast tosilate, (±)-3-{[4-(3-ethoxy-2-hydroxypropoxy)phenyl]amino}-3-oxopropyl)(dimethyl)sulfonium; 4-methylbenzenesulfonate]
- cough number [5]: 7.2±2.8
- effect on cough in capsaicin challenge [6]: improving cough
- effect on cough reflex sensitivity [7]: does not change the cough reflex sensitivity
- solubility in vehicle [8]: well soluble
- effect on cough threshold (Atopic cough): decreasing cough threshold
- effect on citric acid+enalapril induced cough [9]: reduce citric acid+enalapril induced cough
- acute effect on capsaicin induced cough ([10]; acute administration, airway allergy guinea-pig model): does not acutely reduce capsaicin induced cough
- effect on airway cough hypersensitivity ([10]; sub-chronic administration, allergic eosinophilic inflammation, listed as ST): reduce airway cough hypersensitivity; also recorded: inhibiting airway cough hypersensitivity
- inhibition at 30 mg/kg ([1]; 5 min, bleomycin-treated, 30 mg/kg i.p., post-exposure period, versus vehicle, read-out: Percentage inhibition (antitussive effect), 5 min observation): 77.7%
- inhibition at 30 mg/kg ([1]; 10 min, bleomycin-treated, 30 mg/kg i.p., versus vehicle, read-out: Percentage inhibition (antitussive effect), 10 min exposure): 42.8%
- inhibition at 30 mg/kg ([1]; bleomycin-treated, 30 mg/kg i.p., whole 15-min observation, versus vehicle, read-out: Percentage inhibition (antitussive effect), 10 + 5 min): 53.2%
- mean cough, 10 min exposure [1]: 30.3
- antitussive effect (conclusion in words) ([1]; 30 mg/kg i.p.): relevant and statistically significant antitussive effect
- mean cough, 5 min observation [1, 15]: 5
- mean cough, 10 + 5 min [1, 16]: 35.3
- effect on refractory chronic dry cough [11]: benefit refractory chronic dry cough
- inhibition at 30 mg/kg ([2]; 5 min, naive animals, 30 mg/kg i.p., post-exposure period, versus vehicle, read-out: Percentage inhibition (antitussive effect), 5 min observation): -51.9%
- inhibition at 30 mg/kg ([2]; 10 min, naive animals, 30 mg/kg i.p., versus vehicle, read-out: Percentage inhibition (antitussive effect), 10 min exposure): -5.4%
- inhibition at 30 mg/kg ([2]; naive animals, 30 mg/kg i.p., whole 15-min observation, versus vehicle, read-out: Percentage inhibition (antitussive effect), 10 + 5 min): -15%
- mean cough, 10 min exposure ([2]; naive animals): 9.8
- mean cough, 5 min observation ([2]; naive animals, 30 mg/kg i.p.): 3.7
- Percentage inhibition (antitussive effect), 5 min observation ([2]; naive animals, 30 mg/kg i.p., post-exposure period, versus vehicle, 30 mg/kg): did not show antitussive effect
- Percentage inhibition (antitussive effect), 10 min exposure ([2]; naive animals, 30 mg/kg i.p., versus vehicle, 30 mg/kg): did not show antitussive effect
- mean cough, 10 + 5 min [2, 17]: 13.4
- antitussive effect (conclusion in words) ([2]; naive animals, 30 mg/kg i.p.): did not show antitussive effect
